# According to EPA's ToxValDB 9.5:
# Several values for one entry are separate records, joined by “and”; a condition that tells them apart may be missing. Identical values can stand only once.
# Assays:
# [1] = tested on: Mus musculus; conditions: for LC50: inhalation
# [2] = tested on: Oryctolagus sp.; conditions: for LD50: acute
# [3] = tested on: Rattus norvegicus; conditions: for LC50 / LD50: acute
# [4] = tested on: Rattus norvegicus; conditions: oral
# [5] = tested on: Canidae; conditions: chronic, oral, diet, Dog Other
# [6] = short-term, duration: 13 days, oral, diet, B6C3F1
# [7] = subchronic, duration: 13 weeks, oral, diet, B6C3F1
# [8] = subchronic, duration: 13 weeks, oral, diet, Fischer 344
# [9] = short-term, duration: 28 days, gavage, M, Sprague-Dawley, Deaths + Clinical Observation: Locomotor activity decrease, SalivationDiarrhea or loose stool Staining around nose and mouth + Functional …
# [10] = duration: 1 years, F, liver effects
# [11] = duration: 1 years, M, liver effects
# [12] = duration: 1 years, M/F, Blood loss into the gastrointestinal tract + coagulation defect in male and female dogs
# [13] = duration: 1 years, M/F, increased wbc, decreased rbc (females), increased alkaline phosphatase (males)
# [14] = duration: 6 months, M/F, hematological effects
# [15] = developmental, duration: 6 days, oral, ICR
# [16] = reproduction developmental, duration: 6 days, oral, F, ICR
# [17] = short-term, duration: 13 days, oral, gavage, B6C3F1
# [18] = short-term, duration: 16 days, oral, gavage, B6C3F1
# [19] = subchronic, duration: 13 weeks, oral, gavage, B6C3F1
# [20] = reproduction developmental, duration: 13 days, oral, F, Japanese White
# [21] = chronic, duration: 103 weeks, oral, gavage, F, Fischer 344
# [22] = developmental, duration: 7 days, oral, Wistar
# [23] = short-term, duration: 13 days, oral, gavage, Fischer 344
# [24] = short-term, duration: 13 days, oral, gavage, M, Fischer 344
# [25] = short-term, duration: 16 days, oral, gavage, Fischer 344
# [26] = subchronic, duration: 30 days, oral, M, Sprague-Dawley
# [27] = subchronic, duration: 30 days, oral, Sprague-Dawley
compound,measurement,setting,value
"CC(C)(C)C(=O)O [2,2-Dimethylpropanoic acid]",LC50,"[1]; acute, Swiss",< 4 µg/mL
same,LD50,[2]; dermal,3160 mg/kg
same,LD50,"[2]; dermal, semiocclusive",3160 mg/kg
same,NOAEL,"[2]; repeat dose other, dermal, M",300 mg/kg-day
same,NOAEL,"[2]; repeat dose other, dermal, semiocclusive",300 mg/kg-day
same,LC50,"[3]; inhalation, Wistar",< 4 µg/mL
same,NOAEL,"[3]; short-term, duration: 28 days, oral, gavage, Fischer 344",300 mg/kg-day
same,NOAEL,"[4]; short-term, duration: 28 days, gavage, M/F, Fischer 344, Clinical Observation: Head shaking Sneezing Dark nasal discharge + Blood Chemistry: ALP increase, T-Cho increase, T-Bil increase + Absolute …",300 mg/kg-day
CC(C)(N)CO [2-Amino-2-methylpropan-1-ol],LD50,"[1]; acute, oral, gavage",3350 mg/kg
same,LD50,"[2]; dermal, occlusive",> 2000 mg/kg
same,LOAEL,"[3]; subchronic, duration: 3 months, oral, diet, Sprague-Dawley",240 mg/kg-day
"Cc1cc(O)c(C(C)(C)C)cc1Sc1cc(C(C)(C)C)c(O)cc1C [4,4'-Thiobis(6-tert-butyl-m-cresol)]",LOAEL,[1]; [6],500 ppm
same,NOAEL,[1]; [6],250 ppm
same,LOAEL,[1]; [7],98.5 mg/kg-day
same,NOAEL,[1]; [7],49.2 mg/kg-day
same,LD50,"[2]; dermal, New Zealand",> 5010 mg/kg
same,LD50,"[2]; dermal, occlusive, New Zealand",> 5010 mg/kg
same,NOAEL,"[2]; reproduction developmental, duration: 13 days, oral, gavage, F, New Zealand",0.2 mg/kg-day
same,LD50,"[3]; oral, diet, Sprague-Dawley",4150 mg/kg
same,LD50,"[3]; oral, gavage, Sprague-Dawley",4150 mg/kg
same,LOAEL,"[3]; short-term, duration: 13 days, oral, diet, Fischer 344",250 ppm
same,NOAEL,"[3]; short-term, duration: 15 days, oral, diet, Fischer 344",2500 ppm
same,LOAEL,[3]; [8],96 mg/kg-day
same,NOAEL,[3]; [8],48 mg/kg-day
same,NOAEL,[4]; [9],60 mg/kg-day
same,NOEL,[4]; [9],< 60 mg/kg-day
same,NOEL,"[4]; subchronic, duration: 13 weeks, diet, F, Fischer 344, Clinical Observation: Diarrhea + Body Weight Changes: decrease + Food Consumption: decrease + Hematology: Nucleated erythrocyte increase, …",< 15 mg/kg-day
same,NOEL,"[4]; subchronic, duration: 13 weeks, diet, M/F, Fischer 344, Clinical Observation: Diarrhea + Body Weight Changes: decrease + Food Consumption: decrease + Hematology: Nucleated erythrocyte increase, …",< 24 mg/kg-day
COC(=O)c1ccccc1CS(=O)(=O)NC(=O)Nc1nc(OC)cc(OC)n1 [Bensulfuron-methyl],LEL,[5]; [10],223 mg/kg-day
same,NOEL,[5]; [10],19.9 mg/kg-day
same,LEL,[5]; [11],237 mg/kg-day
same,NOEL,[5]; [11],21.4 mg/kg-day
CC(C)N1C(=O)c2ccccc2NS1(=O)=O [Bentazone],LOAEL,[5]; [12],13.1 mg/kg-day
same,NOAEL,[5]; [12],3.2 mg/kg-day
CCOC(=O)c1ccccc1S(=O)(=O)NC(=O)Nc1nc(Cl)cc(OC)n1 [Chlorimuron-ethyl],LEL,[5]; [13],37.5 mg/kg-day
same,NOEL,[5]; [13],6.25 mg/kg-day
O=C(Cl)CCl [Chloroacetyl chloride],LC50,[1]; acute,11100 mg/m3
same,LD50,"[2]; dermal, semiocclusive, New Zealand",≥ 316 mg/kg and ≤ 501 mg/kg
same,LC50,"[3]; inhalation, Fischer 344",3050 mg/m3
same,LD50,[3]; oral,≥ 1260 mg/kg and ≤ 2500 mg/kg
same,LD50,"[3]; oral, Sprague-Dawley",207 mg/kg
same,LOAEL,"[3]; short-term, duration: 4 weeks, inhalation, Fischer 344",2.31 mg/m3
Nc1nc(N)nc(NC2CC2)n1 [Cyromazine],LEL,[5]; [14],7.5 mg/kg-day
same,NOEL,[5]; [14],0.75 mg/kg-day
C=C(C)[C@H]1CC=C(C)CC1 [D-Limonene],NOAEL,"[1]; chronic, duration: 103 weeks, oral, gavage, B6C3F1",500 mg/kg-day
same,LOAEL,"[1]; chronic, duration: 103 weeks, oral, gavage, F, B6C3F1",1000 mg/kg-day
same,LOAEL,[1]; [15],2360 mg/kg-day
same,NOAEL,[1]; [15],591 mg/kg-day
same,LOAEL,[1]; [16],2360 mg/kg-day
same,NOAEL,[1]; [16],591 mg/kg-day
same,LOAEL,[1]; [17],1000 mg/kg-day
same,NOAEL,[1]; [17],500 mg/kg-day
same,LOAEC,[1]; [18],3300 mg/kg-day
same,LOAEL,[1]; [18],3300 mg/kg-day
same,NOAEL,[1]; [18],1650 mg/kg-day
same,LOAEL,[1]; [19],1000 mg/kg-day
same,NOAEL,[1]; [19],500 mg/kg-day
same,LOAEL,[2]; [20],500 mg/kg-day
same,NOAEL,[2]; [20],250 mg/kg-day
same,NOAEL,"[2]; reproduction developmental, duration: 13 days, oral, Japanese White, generation: F1",> 1000 mg/kg-day
same,LOAEL,[3]; [21],600 mg/kg-day
same,NOAEL,[3]; [21],300 mg/kg-day
same,LOAEL,"[3]; chronic, duration: 103 weeks, oral, gavage, M, Fischer 344",75 mg/kg-day
same,LOAEL,[3]; [22],2870 mg/kg-day
same,NOAEL,[3]; [22],591 mg/kg-day
same,NOAEL,"[3]; reproduction developmental, duration: 7 days, oral, F, Wistar",591 mg/kg-day
same,LOAEL,[3]; [23],600 mg/kg-day
same,NOAEL,[3]; [23],300 mg/kg-day
same,LOAEL,[3]; [24],30 mg/kg-day
same,NOAEL,[3]; [24],5 mg/kg-day
same,LOAEC,[3]; [25],1650 mg/kg-day
same,LOAEL,[3]; [25],3300 mg/kg-day
same,NOAEL,[3]; [25],1650 mg/kg-day
same,LOAEL,[3]; [26],2770 mg/kg-day
same,NOAEL,[3]; [26],1380 mg/kg-day
same,LOAEL,[3]; [27],2770 mg/kg-day
same,NOAEL,[3]; [27],1380 mg/kg-day
same,NOEL,"[4]; subchronic, duration: 13 weeks, gavage, M/F, Fischer 344, Deaths + Clinical Observation: Rough hair coats Excessive lacrimation + Body Weight Changes: decrease + Histopathology: Kidney-Nephropathy",< 150 mg/kg-day
